pEC50: −log10 of the molar value.
Key:
Assay type in all cases: cell-based, human
PC3 = assay: 3H thymidine proliferation assay, PC3; conditions: Homo sapiens, PC-3, read-out: EC50, PC3, 3H thymidine method, 72 h incubation
Method in brief: (§1)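 Seeding: 1.0×10^4 cells/well, 3 h. Dosing: 1:3 serial dilutions, 72 h. Label: ^3H-thymidine 1.0 μCi/well for last 24 h, scintillation read; EC50 = 50% proliferation reduction.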

OVCAR3 = assay: 3H thymidine proliferation assay, OVCAR3; conditions: Homo sapiens, OVCAR-3, read-out: EC50, OVCAR3, 3H thymidine method, 72 h incubation
Method in brief: as §1

NCI-H460 = assay: ATP luminescence proliferation assay, NCI-H460; conditions: Homo sapiens, NCI-H460, 72 h, read-out: EC50 NCI-H460 (72 h), ATP luminescence, NCI-H460, 72 h incubation
Description: (§2) This example generally describes the procedures used to assay the antiproliferative activity of compounds of this invention or their conjugates. Human tumor cell lines were obtained from the American Type Culture Collection (ATCC), P.O. Box 1549, Manassas, Va. 20108, USA, and cultured according to instruction from the ATCC. Cells were seeded at 1.0×10^3 or 1.0×10^4 cells/well in 96-well plates for 3 h for ATP assays or ^3H thymidine assays, respectively. 1:3 serial dilutions of free (unconjugated) compounds or their conjugates were added to the wells. Plates were allowed to incubate for 24 to 72 h. The ^3H thymidine plates were pulsed with 1.0 μCi of ^3H-thymidine per well for the last 24 hours of the total incubation period, harvested, and read on a Top Count Scintillation Counter (Packard Instruments, Meriden, Conn.). ATP levels in the ATP plates were measured using the […]-GLO® Luminescent Cell Viability kit following the manufacturer's manual and read on a GLOMAX® 20/20 luminometer (both from Promega, Madison, Wis., USA). The EC50 values—the concentration at which an agent inhibits or reduces cell proliferation by 50% —were determined using PRISM™ software, version 4.0 (GraphPad Software, La Jolla, Calif., USA).
(§3) Using the ^3H thymidine or the ATP luminescence assay, or both, the activities of compounds of this invention were assayed against the following cancer cell lines: HCT-15 (colorectal cancer, multi-drug resistant (MDR)); Hep3B (liver cancer); LNCaP (prostate cancer, androgen receptor positive (AR^+)); MDA-MB-231 (breast cancer, estrogen receptor, progesterone receptor, and Her2 negative (triple negative)); A2058 (melanoma); U-87 MG (glioblastoma); NCI-H460 (NSCLC); A549 (NSCLC); HPAC (pancreatic cancer, primary); PC3 (prostate cancer, AR); BT474 (breast cancer, Her2 highly positive (Her2hi)); SKOV3 (ovarian cancer, Her2hi); 786-O (renal cancer); UO-31 (renal cancer, MDR); NCI-H740 (SCLC); DMS53 (SCLC); SK-BR3 (breast cancer, Her2hi); ZR-75 (breast cancer, estrogen receptor positive); OVCAR3 (ovarian cancer); HL-60 (APL); OVCAR8/Adr (ovarian cancer, MDR); CEM-Cl (ALL); Nomo-1 (AML); RPMI-8226 (MM)); Raji (lymphoma); SW-480 (colorectal cancer, metastatic); SW-620 (colorectal cancer); and H226 (lung cancer). (Not all compounds were assayed against all cell lines.)
(§4) Table 3 provides the data for the ATP luminescence proliferation assays, with an incubation period of 48, 72, or 96 h, as noted.

CEM-Cl = assay: ATP luminescence proliferation assay, CEM-C1; conditions: Homo sapiens, CEM/C1, 72 h, read-out: EC50 CEM-C1 (72 h), ATP luminescence, CEM-C1, 72 h incubation
Description: as §2, §3, §4

SKOV3 = assay: ATP luminescence proliferation assay, SKOV3; conditions: Homo sapiens, SK-OV-3, 72 h, read-out: EC50 SKOV3 (72 h), ATP luminescence, SKOV3, 72 h incubation
Description: as §2, §3, §4

Hep3B = assay: ATP luminescence proliferation assay, Hep3B; conditions: Homo sapiens, 48 h, read-out: EC50 Hep3B (48 h), ATP luminescence, Hep3B, 48 h incubation
Description: as §2, §3, §4

HPAC [1] = assay: ATP luminescence proliferation assay, HPAC; conditions: Homo sapiens, 72 h, read-out: EC50 HPAC (72 h), ATP luminescence, HPAC, 72 h incubation
Description: as §2, §3, §4

Nomo-1 [2] = assay: ATP luminescence proliferation assay, Nomo-1; conditions: Homo sapiens
Description: as §2, §3, §4

HL-60 = assay: 3H thymidine proliferation assay, HL-60; conditions: Homo sapiens, HL-60, read-out: EC50, HL-60, 3H thymidine method, 72 h incubation
Method in brief: as §1

SK-BR3 = assay: 3H thymidine proliferation assay, SK-BR3; conditions: Homo sapiens, SK-BR-3; 3H thymidine method, 72 h incubation
Method in brief: as §1

Raji = assay: 3H thymidine proliferation assay, Raji; conditions: Homo sapiens, Raji, read-out: EC50, Raji, 3H thymidine method, 72 h incubation
Method in brief: as §1

A2058 = assay: 3H thymidine proliferation assay, A2058; conditions: Homo sapiens, A2058; 3H thymidine method, 72 h incubation
Method in brief: as §1

OVCAR8 = assay: 3H thymidine proliferation assay, OVCAR8; conditions: Homo sapiens, OVCAR-8, read-out: EC50, OVCAR8, 3H thymidine method, 72 h incubation
Method in brief: as §1

DMS53 [3] = assay: ATP luminescence proliferation assay, DMS53; conditions: Homo sapiens
Description: as §2, §3, §4

HPAC [4] = assay: 3H thymidine proliferation assay, HPAC; conditions: Homo sapiens, HPAC, read-out: EC50, HPAC, 3H thymidine method, 72 h incubation
Method in brief: as §1

BT474 [5] = assay: ATP luminescence proliferation assay, BT474; conditions: Homo sapiens, BT-474, 48 h, read-out: EC50 BT474 (48 h), ATP luminescence, BT474, 48 h incubation
Description: as §2, §3, §4

BT474 [6] = assay: 3H thymidine proliferation assay, BT474; conditions: Homo sapiens, BT-474, read-out: EC50, BT474, 3H thymidine method, 72 h incubation
Method in brief: as §1

786-O = assay: 3H thymidine proliferation assay, 786-O; conditions: Homo sapiens, 786-0, read-out: EC50, 786-O, 3H thymidine method, 72 h incubation
Method in brief: as §1

Nomo-1 [7] = assay: 3H thymidine proliferation assay, Nomo-1; conditions: Homo sapiens, NOMO-1, read-out: EC50, Nomo-1, 3H thymidine method, 72 h incubation
Method in brief: as §1

H740 = assay: 3H thymidine proliferation assay, H740; conditions: Homo sapiens, read-out: EC50, H740, 3H thymidine method, 72 h incubation
Method in brief: as §1

DMS53 [8] = assay: 3H thymidine proliferation assay, DMS53; conditions: Homo sapiens, DMS-53, read-out: EC50, DMS53, 3H thymidine method, 72 h incubation
Method in brief: as §1

CC[C@H](C)[C@H](NC(=O)[C@H]1CCCCN1C)C(=O)N(C)[C@H](C[C@@H](OC)c1nc(C(=O)N[C@@H](Cc2ccccc2)C(=O)N[C@@H](C)C(=O)OC)cs1)C(C)C [Compound 24]
pEC50 (PC3): 7.20
pEC50 (OVCAR3): 7.05
pEC50 (NCI-H460): 7.64
pEC50 (CEM-Cl): 8.06
pEC50 (SKOV3): 7.89
pEC50 (Hep3B): 8.00
pEC50 (HPAC [1]): 8.96
pEC50 (Nomo-1 [2]; NOMO-1, 72 h, read-out: EC50 Nomo-1 (72 h), ATP luminescence, Nomo-1, 72 h incubation): 8.40
pEC50 (HL-60): 8.16
pEC50 (SK-BR3): < 7.00
pEC50 (Raji): 7.96
pEC50 (A2058): 9.92
pEC50 (OVCAR8): < 7.00
pEC50 (DMS53 [3]; DMS-53, 72 h, read-out: EC50 DMS53 (72 h), ATP luminescence, DMS53, 72 h incubation): < 7.00
pEC50 (HPAC [4]): < 7.00
pEC50 (BT474 [5]): 8.34
pEC50 (BT474 [6]): < 7.00
pEC50 (786-O): < 7.00
pEC50 (Nomo-1 [7]): 8.96
pEC50 (H740): 7.29
pEC50 (DMS53 [8]): < 7.00

CC[C@H](C)[C@H](NC(=O)[C@H]1CCCCN1C)C(=O)N(C)[C@H](C[C@@H](OC)c1nc(C(=O)N[C@H](CC(=O)OC)Cc2ccccc2)cs1)C(C)C [Compound 25]
pEC50 (PC3): 6.50
pEC50 (OVCAR3): 6.42
pEC50 (NCI-H460): 6.75
pEC50 (CEM-Cl): 6.75
pEC50 (SKOV3): 6.96
pEC50 (Hep3B): 6.61
pEC50 (HPAC [1]): 7.01
pEC50 (Nomo-1 [2]; NOMO-1, 48 h, read-out: EC50 Nomo-1 (48 h), ATP luminescence, Nomo-1, 48 h incubation): 7.08
pEC50 (HL-60): 6.51
pEC50 (SK-BR3): 5.77
pEC50 (Raji): 6.64
pEC50 (A2058): 6.39
pEC50 (OVCAR8): 6.02
pEC50 (DMS53 [3]; DMS-53, 48 h, read-out: EC50 DMS53 (48 h), ATP luminescence, DMS53, 48 h incubation): 6.44
pEC50 (HPAC [4]): 6.69
pEC50 (BT474 [5]): 6.78
pEC50 (BT474 [6]): 6.09
pEC50 (786-O): 5.73
pEC50 (Nomo-1 [7]): 6.94
pEC50 (H740): 6.46
pEC50 (DMS53 [8]): 6.29

— US20130204033A1, “ANTIPROLIFERATIVE COMPOUNDS, CONJUGATES THEREOF, METHODS THEREFOR, AND USES THEREOF” (Medarex, Inc., priority 2009, published 2013)
